Experimental findings from patent US20240246964A1 (Arbutus Biopharma Corporation, priority 2021, published 2024) are described below.

Experiment [1] concerns the target PD-L1 His protein / PD-1 Fc protein (Homo sapiens (Human), UniProt Q9NZQ7). Nature of the experiment: HTRF Assay (PD-1/PD-L1 interaction). Format: binding. Particulars: PD-L1 His 6 nM, PD-1 Fc 6 nM.
The target in experiment [2] is human PD-L1 (Homo sapiens (Human), UniProt Q9NZQ7). Put plainly: T cell activation luciferase reporter cell culture system (T Cell Activation Assay). Format: cell-based. Conditions: luciferase reporter assay; PD-L1 aAPC/CHO-K1 cells with PD-1 effector Jurkat T cells. In general terms: A reporter such as luciferase makes a cellular process visible.
human PD-L1, sequence (Q9NZQ7 19-290): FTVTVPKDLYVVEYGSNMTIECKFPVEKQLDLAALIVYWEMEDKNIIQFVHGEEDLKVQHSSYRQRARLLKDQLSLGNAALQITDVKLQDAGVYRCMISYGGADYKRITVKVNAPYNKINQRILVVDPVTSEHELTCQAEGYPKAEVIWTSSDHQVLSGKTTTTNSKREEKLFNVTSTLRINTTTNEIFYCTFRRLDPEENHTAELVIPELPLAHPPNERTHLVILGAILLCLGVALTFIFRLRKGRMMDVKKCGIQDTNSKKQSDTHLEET
The subject of experiment [3] is MC38 tumors expressing human PD-L1. Nature of the experiment: In vivo anti-tumor efficacy in humanized PD-L1 and PD-1 expressing MC38 tumor mouse model. Particulars: intraperitoneal 0.3 mg/kg thrice weekly, study days 1 to 15. The method, then:
In one aspect, this assay measures the ability of a PD-L1 inhibitor to reduce the size of MC38 (a murine colon adenocarcinoma cell line) tumors in mice, as an indication of the PD-L1 inhibitor's ability to help treat, ameliorate, and/or prevent cancer in the subject.
In vivo anti-tumor efficacy of compounds was evaluated in mice expressing humanized PD-1 and PD-L1, in which the extracellular domains of murine PD-1 and PD-L1 were genetically replaced with the human extracellular domain counterparts (Huang et al., Scientific Reports, 2017; 7:42687). Humanized PD-1/PD-L1 (hPD-1/hPD-L1) mice were subcutaneously implanted with the colorectal cancer cell line MC38 expressing human PD-L1 and compound treatment initiated when tumor volumes reached approximately 100 mm^3. Compounds were administered via oral gavage once daily at: 30 mg/kg between study days 1 and 7; or 10 mg/kg for 28 days. The anti-PD-L1 monoclonal antibody atezolizumab was included as a positive reference control and administered via intraperitoneal injection at 0.3 mg/kg thrice weekly between study days 1 and 15. Tumor lengths and widths were measured by digital caliper and tumor volumes were calculated by the formula: […].

PD-L1 His protein / PD-1 Fc protein, sequence (Q9NZQ7 19-238): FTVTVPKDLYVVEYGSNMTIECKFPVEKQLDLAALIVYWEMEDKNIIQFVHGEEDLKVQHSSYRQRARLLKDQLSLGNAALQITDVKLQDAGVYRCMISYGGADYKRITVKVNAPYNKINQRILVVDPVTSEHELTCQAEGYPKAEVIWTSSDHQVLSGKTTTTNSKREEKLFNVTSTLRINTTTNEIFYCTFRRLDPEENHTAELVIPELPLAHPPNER

A word on the IC50: it is the midpoint of a concentration-inhibition curve. Higher therefore signals a need for much substance. In general, EC50 refers to the concentration at which the effect is half-maximal. Low values mean greater potency, high ones weaker potency. As for `COc1cc(-c2nccc(-c3cccc(NC(=O)c4ccc(CNCCO)cn4)c3C)c2Cl)ccc1CNC[C@@H]1CCC(=O)N1` [Example 735, (S)—N-(3-(3-Chloro-2-(3-methoxy-4-((((5-oxopyrrolidin-2-yl)methyl)amino)methyl)phenyl)pyridin-4-yl)-2-methylphenyl)-5-(((2-hydroxyethyl)amino)methyl)picolinamide], the IC50 in experiment [1] came out at 0.03 nM. This molecule showed an EC50 in experiment [2] of 15.6 nM.
In experiment [1], `COc1cc(-c2nccc(-c3cccc(NC(=O)c4ccc(CNC[C@@H]5CCC(=O)N5)cn4)c3C)c2Cl)ccc1CNCCCF` [Example 749, (S)—N-(3-(3-Chloro-2-(4-(((3-fluoropropyl)amino)methyl)-3-methoxyphenyl)pyridin-4-yl)-2-methylphenyl)-5-((((5-oxopyrrolidin-2-yl)methyl)amino)methyl)picolinamide] yielded an IC50 of 0.33 nM. In experiment [2], this molecule showed an EC50 of 461 nM.
Consider `COc1cc(-c2nccc(-c3cccc(NC(=O)c4ccc(CNCCO)cn4)c3Cl)c2Cl)ccc1CNC[C@@H]1CCC(=O)N1` [Example 755, (S)—N-(2-Chloro-3-(3-chloro-2-(3-methoxy-4-((((5-oxopyrrolidin-2-yl)methyl)amino)methyl)phenyl)pyridin-4-yl)phenyl)-5-(((2-hydroxyethyl)amino)methyl)picolinamide], for which, in experiment [1], the IC50 came to 0.12 nM. The same molecule gave an EC50 in experiment [2] of 4.48 nM.
The matching figures for `CNCc1ccc(C(=O)Nc2cccc(-c3ccnc(-c4ccc(CNC[C@@H]5CCC(=O)N5)c(OC)c4)c3Cl)c2C)nc1` [Example 756, (S)—N-(3-(3-chloro-2-(3-methoxy-4-((((5-oxopyrrolidin-2-yl)methyl)amino)methyl)phenyl)pyridin-4-yl)-2-methylphenyl)-5-((methylamino)methyl)picolinamide]: 0.2 nM and 63.8 nM.
With `COc1cc(-c2nccc(-c3cccc(NC(=O)c4ccc(CNCCO)cn4)c3Cl)c2Cl)ccc1CN1CC2(C1)CN(C(C)=O)C2` [Example 757, N-(3-(2-(4-((6-Acetyl-2,6-diazaspiro[3.3]heptan-2-yl)methyl)-3-methoxyphenyl)-3-chloropyridin-4-yl)-2-chlorophenyl)-5-(((2-hydroxyethyl)amino)methyl)picolinamide], in experiment [1], half-maximal inhibition (IC50) required 0.47 nM. The molecule further showed a concentration for a half-maximal effect (EC50) in experiment [2] of 86.5 nM.
`COc1nc(-c2cccc(-c3nccc(-c4ccc(CN5CCC(O)CC5)c(OC)n4)c3Cl)c2Cl)ccc1CN1CCC(O)CC1` [Example 759, 1-((3′-Chloro-2′-(2-chloro-3-(5-((4-hydroxypiperidin-1-yl)methyl)-6-methoxypyridin-2-yl)phenyl)-6-methoxy-[2,4′-bipyridin]-5-yl)methyl)piperidin-4-ol] had an IC50 in experiment [1] of 0.63 nM. Also, the 50% effective concentration (EC50) in experiment [2] turned out to be 16.9 nM.
With `COc1nc(-c2cccc(-c3nccc(-c4ccc(CN5CC6(CCN(C(C)=O)C6)C5)c(OC)n4)c3Cl)c2Cl)ccc1CN1CC2(CCN(C(C)=O)C2)C1` [Example 760, 1-(2-((6-(3-(5-((6-Acetyl-2,6-diazaspiro[3.4]octan-2-yl)methyl)-3′-chloro-6-methoxy-[2,4′-bipyridin]-2′-yl)-2-chlorophenyl)-2-methoxypyridin-3-yl)methyl)-2,6-diazaspiro[3.4]octan-6-yl)ethan-1-one], the 50% inhibitory concentration (IC50) in experiment [1] came out at 0.32 nM. The molecule further displayed an EC50 in experiment [2] of 19.2 nM.
With `COc1nc(-c2cccc(-c3nccc(-c4ccc(CN5CCC(O)CC5)c(OC)n4)c3Cl)c2Cl)ccc1CNC1CCN(C(C)=O)CC1` [Example 761, 1-(4-(((6-(2-Chloro-3-(3′-chloro-5-((4-hydroxypiperidin-1-yl)methyl)-6-methoxy-[2,4′-bipyridin]-2′-yl)phenyl)-2-methoxypyridin-3-yl)methyl)amino)piperidin-1-yl)ethan-1-one], half-maximal inhibition in experiment [1] (IC50) required 0.87 nM. In experiment [2], the EC50 stood at 16.9 nM.
The matching figures for `COc1cc(-c2nccc(-c3cccc(NC(=O)c4ccc(CNCCO)cn4)c3C)c2Cl)cc(F)c1CNCCO` [Example 762, N-(3-(3-chloro-2-(3-fluoro-4-(((2-hydroxyethyl)amino)methyl)-5-methoxyphenyl)pyridin-4-yl)-2-methylphenyl)-5-(((2-hydroxyethyl)amino)methyl)picolinamide]: 0.75 nM and 49.9 nM.
Consider `COc1nc(-c2ccnc(-c3cccc(NC(=O)c4ccc(CNCCO)cn4)c3C)c2Cl)ccc1CNC1CCOCC1` [Example 766, N-(3-(3′-Chloro-6-methoxy-5-(((tetrahydro-2H-pyran-4-yl)amino)methyl)-[2,4′-bipyridin]-2′-yl)-2-methylphenyl)-5-(((2-hydroxyethyl)amino)methyl)picolinamide], for which half-maximal inhibition in experiment [1] (IC50) required 0.32 nM. This molecule showed a 50% effective concentration (EC50) in experiment [2] of 152 nM.
The corresponding values for `COc1cc(-c2nccc(-c3cccc(NC(=O)c4ccc(CNCCO)cn4)c3Cl)c2Cl)ccc1CNC1CCOCC1` [Example 768, N-(2-Chloro-3-(3-chloro-2-(3-methoxy-4-(((tetrahydro-2H-pyran-4-yl)amino)methyl)phenyl)pyridin-4-yl)phenyl)-5-(((2-hydroxyethyl)amino)methyl)picolinamide] are 0.1 nM and 16.7 nM.
With `COc1nc(-c2ccnc(-c3cccc(NC(=O)c4ccc(CNCCO)cn4)c3C)c2Cl)ccc1CNC1CCN(C(C)=O)CC1` [Example 769, N-(3-(5-(((1-Acetylpiperidin-4-yl)amino)methyl)-3′-chloro-6-methoxy-[2,4′-bipyridin]-2′-yl)-2-methylphenyl)-5-(((2-hydroxyethyl)amino)methyl)picolinamide], the IC50 in experiment [1] turned out to be 0.24 nM. Also, the EC50 in experiment [2] was determined as 60.6 nM.
In experiment [1], `Cc1c(NC(=O)c2ccc(CNCCO)cn2)cccc1-c1ccnc(-c2ccc(CNC[C@@H]3CCC(=O)N3)c(OC(F)F)c2)c1Cl` [Example 770, (S)—N-(3-(3-Chloro-2-(3-(difluoromethoxy)-4-((((5-oxopyrrolidin-2-yl)methyl)amino)methyl)phenyl)pyridin-4-yl)-2-methylphenyl)-5-(((2-hydroxyethyl)amino)methyl)picolinamide] registered a 50% inhibitory concentration (IC50) of 0.76 nM. Also, the response in experiment [2] was half-maximal at 24.3 nM (EC50).
As for `COc1nc(-c2ccnc(-c3cccc(NC(=O)c4ccc(CNCCO)cn4)c3C)c2Cl)ccc1CNC[C@@H]1CCC(=O)N1` [Example 771, (S)—N-(3-(3′-chloro-6-methoxy-5-((((5-oxopyrrolidin-2-yl)methyl)amino)methyl)-[2,4′-bipyridin]-2′-yl)-2-methylphenyl)-5-(((2-hydroxyethyl)amino)methyl)picolinamide], 0.03 nM corresponded to half-maximal inhibition in experiment [1] (IC50). In experiment [2], this molecule gave an EC50 of 28.7 nM.
Consider `COc1nc(-c2cccc(-c3nccc(-c4ccc(CN5CC[C@@H](O)C5)c(OC)n4)c3Cl)c2Cl)ccc1CN1CC[C@@H](O)C1` [Example 772, (R)-1-((3′-Chloro-2′-(2-chloro-3-(5-(((R)-3-hydroxypyrrolidin-1-yl)methyl)-6-methoxypyridin-2-yl)phenyl)-6-methoxy-[2,4′-bipyridin]-5-yl)methyl)pyrrolidin-3-ol], for which the midpoint of inhibition in experiment [1], the IC50, lay at 0.85 nM. Moreover, the EC50 in experiment [2] amounted to 11.6 nM.
Turning to `COc1nc(-c2cccc(-c3nccc(-c4ccc(CN5CC[C@H](O)C5)c(OC)n4)c3Cl)c2Cl)ccc1CN1CC[C@H](O)C1` [Example 773, (S)-1-((3′-Chloro-2′-(2-chloro-3-(5-(((S)-3-hydroxypyrrolidin-1-yl)methyl)-6-methoxypyridin-2-yl)phenyl)-6-methoxy-[2,4′-bipyridin]-5-yl)methyl)pyrrolidin-3-ol], half-maximal inhibition in experiment [1] (IC50) was put at 1.03 nM. This molecule also displayed an EC50 in experiment [2] of 10.6 nM.
The molecule `COc1nc(-c2cccc(-c3nccc(-c4ccc(CNC5CCN(C(C)=O)CC5)c(OC)n4)c3Cl)c2Cl)ccc1CN1CCC(O)CC1` [Example 774, 1-(4-(((3′-Chloro-2′-(2-chloro-3-(5-((4-hydroxypiperidin-1-yl)methyl)-6-methoxypyridin-2-yl)phenyl)-6-methoxy-[2,4′-bipyridin]-5-yl)methyl)amino)piperidin-1-yl)ethan-1-one] came in with an IC50 in experiment [1] of 1.46 nM. In experiment [2], this molecule yielded an EC50 of 13 nM.
As for atezolizumab, the “Tumor Volume (group mean)” value in experiment [3] (study day 2) turned out to be 122 mm^3; in experiment [3] (study day 5), 162 mm^3; in experiment [3] (study day 9), 156 mm^3; in experiment [3] (study day 12), 192 mm^3; in experiment [3] (study day 16) it was 242 mm^3; in experiment [3] (study day 19) it was 243 mm^3. Also, the “Tumor Volume (group mean)” value in experiment [3] (study day 23) is listed as 341 mm^3; in experiment [3] (study day 26) it was 429 mm^3; in experiment [3] (study day 28) it was 472 mm^3; in experiment [3] (study day −1), 105 mm^3.
